Measured values as given in US6310072A (priority 1995, dated 2001).
pKi: −log10 of the molar value. “Also recorded” adds a separate entry of the source. Like-named read-outs stand apart in the source and are kept apart here.

Tests used:
[1] = cited from earlier work
Sprague-Dawley rats [2] = system: Sprague-Dawley rats
Sprague-Dawley rats [3] = type: in vivo, rat (Sprague-Dawley)
κ-opioid receptors = conditions: in vivo; cited from earlier work
Sprague-Dawley rats [4] = type: in vivo, rat (Sprague-Dawley); remark: listed apart in the source
surgical patients [5] = conditions: i.v. alone; cited from earlier work
humans = conditions: naive human adult, every four hours, cited from earlier work
Dark Agouti rats [6] = system: Dark Agouti rats; set-up: species or system rat (Dark Agouti); conditions: rat, in vivo, sc
Dark Agouti rats [7] = conditions: rat, in vivo, sc
Sprague-Dawley rats [8] = conditions: cited from earlier work; for ED50 / Time to maximum antinociception: i.c.v.
Dark Agouti rats [9] = type: in vivo, rat (Dark Agouti); conditions: any time
[10] = system: fetal dorsal root ganglion sensory neurones; conditions: cited from earlier work
rats = conditions: systemic oxycodone; cited from earlier work
surgical patients [11] = type: in vivo, human; conditions: i.v. morphine 2.0 mg plus oxycodone 2.0 mg; oxycodone 10 mg alone
Dark Agouti rats [12] = conditions: s.c. oxycodone; cited from earlier work
κ2a-2 opioid receptor = conditions: κ2a-2 subtype; cited from earlier work
[13] = system: δ-opioid receptors relative to μ-opioid receptors; conditions: cited from earlier work
[14] = system: δ- relative to κ-opioid receptors; conditions: cited from earlier work

C=CCN1CC[C@]23c4c5ccc(O)c4O[C@H]2/C(=N/N=C2\CC[C@@]4(O)[C@H]6Cc7ccc(O)c8c7[C@@]4(CCN6CC=C)[C@H]2O8)CC[C@@]3(O)[C@H]1C5 [naloxonazine]
Effect on DAMGO antinociception ([1]; naloxonazine): antagonise the antinociceptive effects | Effect on DPDPE antinociception ([1]; naloxonazine): did not reduce the antinociception | Effect on morphine antinociception ([1]; naloxonazine): antagonise the antinociceptive effects | Excitatory behaviour (Sprague-Dawley rats [2]; rat, in vivo): minor excitatory behaviour (shaking and teeth chattering) | Sensitivity to external stimuli versus untreated rats (Sprague-Dawley rats [2]; rat, in vivo): more sensitive to external stimuli (touch and sound) | Duration of action of oxycodone after antagonist (Sprague-Dawley rats [3]; rat, in vivo): 60 min | Effect on morphine antinociception (Sprague-Dawley rats [3]; rat, in vivo): completely attenuated; also recorded: attenuated the antinociceptive effects | Effect on oxycodone antinociception (Sprague-Dawley rats [3]; rat, in vivo): minor effect on the observed antinocicepfion; also recorded: magnitude of antinociception did not appear to be significantly reduced during the first 15 min; also recorded: almost no effect; also recorded: did not attenuate | Reduction of %MPE values versus untreated rats (Sprague-Dawley rats [3]; rat, in vivo): 5-10%

CCC12CCN(CC3CC3)C(C(=O)c3ccc(O)cc31)C2C (centres unmarked) [ethylketazocine]
Antinociception profile (κ-opioid receptors): antinociception characterised by a rapid onset of action and a single antinociceptive phase

CN1CC[C@]23c4c5ccc(O)c4O[C@H]2[C@@H](O)C=C[C@H]3[C@H]1C5 [morphine]
Degree of antinociception (%MPE) (Sprague-Dawley rats [4]; i.c.v. morphine 15 nmol alone, any time in 3 h): ≤ 20% | Dose used for intubation (surgical patients [5]): approximately 10 mg | Lower threshold initial dose producing analgesia (humans; intravenous): 4 to 5 mg | Lower threshold initial dose producing analgesia (humans; oral): 30 mg | Time of onset of antinociception (%MPE≥30%) (Dark Agouti rats [6]): 22 min | Failure of eye reflex test (Dark Agouti rats [7]): approximately 40 % of the time | Failure of righting reflex test (Dark Agouti rats [7]): approximately 33 % of the time | ED50 (Sprague-Dawley rats [8]): 34 nmol | Antinociception (% MPE) (Dark Agouti rats [9]; i.p. morphine 621 nmol alone): ≤ 50 % MPE

C=CCN1CC[C@]23c4c5ccc(O)c4O[C@H]2C(=O)CC[C@@]3(O)[C@H]1C5 [naloxone]
Action potential duration (APD) [10]: marked shortening of the action potential duration (APD) | Reversal of oxycodone/morphine antinociception by naloxone (Sprague-Dawley rats [8]; rat, in vivo): completely reversible; also recorded: completely attenuated

COc1ccc2c3c1O[C@H]1C(=O)CC[C@@]4(O)[C@@H](C2)N(C)CC[C@]314 [oxycodone]
Duration of antinociception (Sprague-Dawley rats [4]; i.c.v. equipotent doses administered separately): 90 min | Antinociception (Sprague-Dawley rats [4]; i.c.v. oxycodone 40 nmol alone): no antinociception was observed; also recorded: most of the %MPE values were negative | Catatonic behaviour (rats): catatonic behaviour observed | Dose used for intubation (surgical patients [5]): approximately 10 mg | Lower threshold initial dose producing analgesia (humans; oral): 10 mg | ED50 oxycodone dose (Dark Agouti rats [6]): 0.44 (±0.04) mg | Time of onset of antinociception (%MPE≥30%) (Dark Agouti rats [6]): 12 min | Time to maximum antinociception (Tmax) (Dark Agouti rats [6]): 20 min | Onset of clinical effect (surgical patients [11]): ~5 min | Failure of eye reflex test (Dark Agouti rats [7]): approximately 40 % of the time | Failure of righting reflex test (Dark Agouti rats [7]): ~50 % of the time | Loss of landing reflex (Dark Agouti rats [7]): no loss of the landing reflex | Loss of righting or landing reflexes (Dark Agouti rats [7]): no loss of the righting or landing reflexes | Sedation (Dark Agouti rats [7]): markedly sedated compared with control rats | Reversal of oxycodone/morphine antinociception by naloxone (Sprague-Dawley rats [8]; i.c.v. naloxone (55 nmol)): naloxone-reversible antinociceptlon | Time by which antinociception is essentially complete (Sprague-Dawley rats [8]; i.c.v. oxycodone, post-dosing): ≤ 90 min | ED50 (Sprague-Dawley rats [8]): 78 nmol | Time to maximum antinociception (Sprague-Dawley rats [8]): ≤ 7 min | Time to maximum antinociception (Sprague-Dawley rats [8]; listed as Oxycodone): 5 to 7 min | Antinociception (Dark Agouti rats [12]): achieved maximum antinociception | Antinociception (% MPE) (Dark Agouti rats [9]; i.p. oxycodone 571 nmol alone): ≤ 50 % MPE | Catatonic behaviour (Sprague-Dawley rats [2]; i.c.v. oxycodone 200 nmol): nor did they exhibit the catatonic behaviour | Spontaneous bladder emptying or incontinence (Sprague-Dawley rats [2]; i.c.v., oxycodone 200 nmol, morphine 78 nmol): did not exhibit any signs of spontaneous bladder emptying or incontinence | Time of peak antinociception (Sprague-Dawley rats [3]; i.c.v. oxycodone 200 nmol): 5 min | Time to return to baseline values (Sprague-Dawley rats [3]; i.c.v. oxycodone 200 nmol): ≤ 90 min | Antinociception peak (% MPE) (Sprague-Dawley rats [3]; i.c.v. oxycodone 200 nmol, 5 min): 100 % MPE | Duration of action of oxycodone (Sprague-Dawley rats [3]; oxycodone 200 nmol i.c.v. alone): 90 min

CCC12CCN(CC3(O)CC3)C(Cc3ccc(O)cc31)C2(C)C (centres unmarked) [bremazocine]
Antinociception profile (κ-opioid receptors): antinociception characterised by a rapid onset of action and a single antinociceptive phase

Oc1ccc2c3c1O[C@H]1c4[nH]c5c(c4C[C@@]4(O)[C@@H](C2)N(CC2CC2)CC[C@]314)C[C@@]1(O)[C@H]2Cc3ccc(O)c4c3[C@@]1(CCN2CC1CC1)[C@H]5O4 [nor-BNI, nor-binaltorphimine]
Effect on U69,593 antinociception ([1]; nor-BNI): antagonize the antinociceptive effects | Effect on bremazocine antinociception ([1]; nor-BNI): antagonize the antinociceptive effects | pKi (κ2a-2 opioid receptor): 8.23 | Effect on U69,593 antinociception (Sprague-Dawley rats [3]; rat, in vivo): complete attenuation of the antinociceptive effects; also recorded: markedly attenuated | Effect on bremazocine antinociception (Sprague-Dawley rats [3]; rat, in vivo): complete attenuation of the antinociceptive effects; also recorded: markedly attenuated | Effect on morphine antinociception (Sprague-Dawley rats [3]; rat, in vivo): not attenuated; also recorded: no effect; also recorded: did not attenuate | Effect on oxycodone antinociception (Sprague-Dawley rats [3]; rat, in vivo): complete attenuation of the antinociceptive effects; also recorded: markedly attenuated; also recorded: completely attenuated; also recorded: completely attentuated; also recorded: attenuated only by nor-BNI

O=C1CC[C@@]2(O)[C@H]3Cc4ccc(O)c5c4[C@@]2(CCN3CC2CC2)[C@H]1O5 [naltrexone]
Action potential duration (APD) [10]: marked shortening of the action potential duration (APD)

Oc1ccc2c3c1O[C@H]1c4[nH]c5ccccc5c4C[C@@]4(O)[C@@H](C2)N(CC2CC2)CC[C@]314 [naltrindole]
Selectivity for δ- relative to μ-opioid receptors [13]: 100 fold | Selectivity for δ- relative to κ-opioid receptors [14]: 10,000 fold | %MPE values versus pre-dosing baseline (Sprague-Dawley rats [3]; rat, in vivo): not significantly different (p>0.05) from pre-dosing baseline values | Effect on DPDPE antinociception (Sprague-Dawley rats [3]; rat, in vivo): significantly attenuated (p<0.05); also recorded: completely attenuated | Effect on oxycodone antinociception (Sprague-Dawley rats [3]; rat, in vivo): did not significantly attenuate (p>0.05); also recorded: failed to attenuate
